Measured values: patent publication US20240368163A1, “COMPOUNDS AND METHODS FOR MODULATING SPLICING” (REMIX THERAPEUTICS INC., priority 2021, published 2024)
Read-outs that look alike come from different tables or passages of the source.

Experiments:
Format in all cases: cell-based, human
MYB [1] = experiment: Splicing RT-qPCR assay, MYB mRNA canonical junction (CJ) and alternative junction (AJ); details: Homo sapiens; for AC50: increase in AJ mRNA
How it was run: (§1)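 Splice switching is measured in A673 or K562 cells after 24 h compound exposure (maximum 10 uM, 3-fold steps). Canonical and alternative junction mRNA levels are quantified by RT-qPCR relative to housekeeper and DMSO.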

HTT [2] = experiment: Splicing RT-qPCR assay, HTT mRNA canonical junction (CJ) and alternative junction (AJ); details: Homo sapiens; for AC50: increase in AJ mRNA
How it was run: as §1

MYB [3] = experiment: HiBiT protein abundance assay, MYB; details: Homo sapiens, K562, 24 h, modified K562 cells
How it was run: (§2)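 HiBiT-tagged endogenous targets in K562 cells treated 24 h at 37° C. with 10-point 3-fold dilutions (top 10 μM, DMSO ≤0.25%). Luminescence read after lytic LgBiT detection; response normalised to unmodified-cell and DMSO controls, IC50 interpolated at 50% from four-parameter logistic fit.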

SMN2 = experiment: Splicing RT-qPCR panel, SMN2 canonical junction (CJ) mRNA; details: Homo sapiens, read-out: SMN2 IC50 (decrease in CJ mRNA levels)
How it was run: as §1

Target C [4] = experiment: Splicing RT-qPCR panel, Target C canonical junction (CJ) mRNA; details: Homo sapiens, read-out: Target C IC50 (decrease in CJ mRNA levels)
How it was run: as §1

Target C [5] = experiment: HiBiT protein abundance assay, Target C; details: Homo sapiens, K562, 24 h, modified K562 cells
How it was run: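 HiBiT knock-in K562-derived cells seeded at 10000/well and treated with 10-point 3-fold dilutions (top final 10 μM, ≤0.25% DMSO) for 24 h at 37 °C. Lytic HiBiT luminescence normalised to unmodified-cell and DMSO controls; IC50 from 4-parameter fit at 50% abundance.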

HTT [6] = experiment: HiBiT protein abundance assay, HTT; details: Homo sapiens, K562, 24 h, modified K562 cells
How it was run: as §2

[7] = 24 h, decrease in CJ mRNA, A673 or K562 cells, 24 hours treatment, RT-qPCR, read-out: MYB CJ IC50
[8] = 24 h, A673 or K562 cells, 24 hours treatment, RT-qPCR
[9] = RT-qPCR panel, canonical junction mRNA, compound concentration having 50% response in CJ decrease, read-out: MYB IC50 (decrease in CJ mRNA levels)
[10] = 24 h, decrease in CJ mRNA, A673 or K562 cells, 24 hours treatment, RT-qPCR, read-out: HTT CJ IC50
[11] = RT-qPCR panel, canonical junction mRNA, compound concentration having 50% response in CJ decrease, read-out: HTT IC50 (decrease in CJ mRNA levels)
[12] = RT-qPCR panel, canonical junction mRNA, compound concentration having 50% response in CJ decrease
[13] = gene panel, CJ qPCR, protocol of Example 142

| SMILES | IC50 (MYB [1]; [7]) [nM] | AC50 (MYB [1]; [8]) [nM] | IC50 (MYB [1]; [9]) [nM] | IC50 (HTT [2]; [10]) [nM] | AC50 (HTT [2]; [8]) [nM] | IC50 (HTT [2]; [11]) [nM] | IC50 (MYB [3]; Table 13A) [nM] | IC50 (SMN2; [12]) [nM] | IC50 (Target C [4]; [12]) [nM] | IC50 (Target C [5]; Table 13A) [nM] | IC50 (HTT [6]; Table 13A) [nM] | IC50 (MYB [1]; gene panel, CJ qPCR, protocol of Example 142, read-out: MYB IC50 (decrease in CJ mRNA levels)) [nM] | IC50 (HTT [2]; gene panel, CJ qPCR, protocol of Example 142, read-out: HTT IC50 (decrease in CJ mRNA levels)) [nM] | IC50 (MYB [3]; Table 13B) [nM] | IC50 (SMN2; [13]) [nM] | IC50 (Target C [4]; [13]) [nM] | IC50 (Target C [5]; Table 13B) [nM] | IC50 (HTT [6]; Table 13B) [nM] |
| --- | --- | --- | --- | --- | --- | --- | --- | --- | --- | --- | --- | --- | --- | --- | --- | --- | --- | --- |
| Cc1cc(-c2ccc(-c3ccc(O[C@H]4C[C@@H]5CC(F)(F)[C@H](C4)N5)nn3)c3[nH]ncc23)ccn1 (single isomer, unassigned) [Compound 370] | > 10000 | > 10000 | > 10000 | > 10000 | > 10000 | > 10000 | 1000 to 10000 | 1000 to 10000 | 1000 to 10000 | > 10000 | 1000 to 10000 |  |  |  |  |  |  |  |
| Cl.Fc1cc(-c2ccc(NC3CCNCC3)nn2)c2[nH]ncc2c1-c1cn[nH]c1 [Compound 350, 6-[5-fluoro-4-(1H-pyrazol-4-yl)-1H-indazol-7-yl]-N-(piperidin-4-yl)pyridazin-3-amine hydrochloride] | > 10000 | > 10000 | > 10000 | > 10000 | > 10000 | > 10000 | 1000 to 10000 | > 10000 | > 10000 | > 10000 | > 10000 |  |  |  |  |  |  |  |
| CN1C[C@@H]2[C@H](C1)[C@H]2N(C)c1ccc(-c2ccc(-c3cn[nH]c3)c3ncsc23)nn1 [Compound 235] | > 10000 | > 10000 | > 10000 | > 10000 | > 10000 | > 10000 | 1000 to 10000 | 1000 to 10000 | > 10000 | 100 to 1000 | 1000 to 10000 |  |  |  |  |  |  |  |
| c1n[nH]cc1-c1ccc(-c2ccc(O[C@@H]3C[C@H]4CC[C@@H](C3)N4)nn2)c2[nH]ncc12 [Compound 142] | 100 to 1000 | 100 to 1000 | 100 to 1000 | 100 to 1000 | 100 to 1000 | 100 to 1000 | < 100 | < 100 | 100 to 1000 | < 100 | < 100 |  |  |  |  |  |  |  |
| COc1cc(-c2ccc(-c3ccc(N(C)C4CC(C)(C)NC(C)(C)C4)nn3)c3ncsc23)cnn1 [Compound 233] | 100 to 1000 | 100 to 1000 | 100 to 1000 | 100 to 1000 | 100 to 1000 | 100 to 1000 | 100 to 1000 | 100 to 1000 | 100 to 1000 | 100 to 1000 | 100 to 1000 |  |  |  |  |  |  |  |
| c1n[nH]cc1-c1ccc(-c2ccc(N3CCC4(CCNCC4)C3)nn2)c2[nH]ncc12 [Compound 239] | > 10000 | > 10000 | > 10000 | > 10000 | > 10000 | > 10000 | > 10000 | > 10000 | > 10000 | > 10000 | > 10000 |  |  |  |  |  |  |  |
| COc1nc(-c2cnc(N(C)[C@@H]3C[C@H]4CC[C@@H](C3)N4)nc2)ccc1-c1cn[nH]c1 [Compound 981] |  |  |  |  |  |  |  |  |  |  |  | 1000 to 10000 | 100 to 1000 | 100 to 1000 | 100 to 1000 | 1000 to 10000 | 100 to 1000 | < 100 |
| CN(c1ccc(-c2ccc(-n3cccn3)c3[nH]ncc23)nn1)C1CC(C)(C)NC(C)(C)C1 [Compound 559] |  |  | 1000 to 10000 |  |  | 100 to 1000 | 100 to 1000 | 100 to 1000 | 1000 to 10000 | 100 to 1000 | 100 to 1000 |  |  |  |  |  |  |  |
| CN(c1ccc(-c2ccc(-c3cn[nH]c3)c3ncsc23)nn1)[C@H]1C[C@H]2COC[C@@H](C1)N2 [Compound 355] | 1000 to 10000 | 1000 to 10000 | 1000 to 10000 | 1000 to 10000 | 1000 to 10000 | 1000 to 10000 | 1000 to 10000 | 1000 to 10000 | 1000 to 10000 | 1000 to 10000 | 1000 to 10000 |  |  |  |  |  |  |  |
| CN1C[C@@H]2CN(c3ccc(-c4ccc(-c5cn[nH]c5)c5ncsc45)nn3)C[C@@H]2C1 [Compound 198] | > 10000 | > 10000 | > 10000 | > 10000 | > 10000 | > 10000 | 1000 to 10000 | 100 to 1000 | > 10000 | > 10000 | > 10000 |  |  |  |  |  |  |  |
